Assays:
Type in all cases: cell-based, canine
CIPp cells [1] = assay: Colony formation assay; details: 0.3 μM or 0.9 μM for 24 h, then 10 days, vs control group
Protocol: (§1) CMT-7364 and CIPp cells were seeded in a 6-well cell culture plate at a concentration of 1 × 10^4 cells/well until they became adherent, cultured for another 24 h with serum-containing medium with 0 μM celastrol (control group), 0.3 μM celastrol, and 0.9 μM celastrol, respectively. Cells were treated with 0.25% trypsin (Gibco, NY, United States) and resuspended into single cells, each group of cells was seeded in a 6-well cell culture plate at 400 cells/well concentration, and cultured for 10 consecutive days. […] The cells were stained with 0.1% crystal violet, and photographed with a digital camera, followed by calculating the number of colonies.

CMT-7364 cells [2] = assay: Colony formation assay; details: 0.3 μM or 0.9 μM for 24 h, then 10 days, vs control group
Protocol: as §1

CIPp cells [3] = assay: Cell migration (wound healing) assay; details: 0.9 μM, 24 h, relative to cells without celastrol
Protocol: (§2) CMT-7364 and CIPp cell suspensions were uniformly seeded in a 6-well cell culture plate at a concentration of 1 × 10^5 cells/well. After the cells were fully confluent (more than 90 % of confluence), a 200-μl sterile pipette tip was used to scratch a straight line in the cells of each well. PBS was used to wash away the cell debris and floated cells, and 10% serum-containing medium (control group) and 10% serum-containing medium with celastrol (0.3 μM or 0.9 μM) (test group) were added, respectively, then cells were incubated for 24 h in an incubator. Mitomycin C (1 μM) was used to inhibit cell proliferation. Images of cell migration (wound healing) of the same field were taken with an inverted microscope at 0 and 24 h time points, respectively, followed by analyzing the cell migration rate with ImageJ software (version 1.8.0, United States). In brief, 6–8 horizontal lines were randomly drawn in the wound area to calculate the average value of the distance between cells. The migration rate = [(Distance celastrol0h-Distance celastrol24h) / (Distance control0h-Distance control24h)] × 100%.

CMT-7364 cells [4] = assay: Cell migration (wound healing) assay; details: 0.9 μM, 24 h, relative to cells without celastrol
Protocol: as §2

CIPp cells [5] = assay: Cell invasion (transwell, Matrigel) assay
Protocol: (§3) The transwell chambers were placed in a 24-well cell culture plate, each well was plated with 100 μl serum-free medium containing 5% Matrigel on the upper chamber, and placed in incubator at 37°C for 2 h. The excess media were pipetted out of the upper chamber, 100 μl of cell suspension with or without celastrol treatment (0.3 μM or 0.9 μM) were added at a concentration of 1 × 10^4 cells/ml in each upper chamber; the lower chambers were filled with 600 μl medium containing 10% serum for each well. […] PBS was used to rinse the chambers for 2 min with 3 times repeated, then the cells were fixed with methanol for 10 min, followed by distilled water rinsed for 2 min with 3 times repeated. Finally, cells were dyed with 0.1% crystal violet at room temperature for 20 min, and washed with distilled water until the water is colorless. Images of cell invasion were taken with an inverted microscope, and the stained cells represented the invasion cells were counted by a cell counter to analyze the cell invasion rate. The relative invasion rate = (cell number celastrol /cell number control) × 100%.

CMT-7364 cells [6] = assay: Cell invasion (transwell, Matrigel) assay
Protocol: as §3

CIPp cells [7] = assay: Annexin V-FITC/PI apoptosis flow cytometry; details: 0.3 and 0.9 μM, 24 h, vs control group
Protocol: (§4) CMT-7364 and CIPp cells were seeded in a 6-well plate at a concentration of 1 × 10^5 cells/well, treated with different concentrations of celastrol (0, 0.3, and 0.9 μM) for 24 h. The cell culture medium was collected, the cells were washed once with PBS, digested with 0.25% trypsin, the cells were resuspended with the collected cell culture medium and kept after centrifugation. The cells were stained with Annexin V-FITC Apoptosis Detection Kit, and Guava easy Cyte5 (Merck millipore, United States) was used to detect the stained cells, and the data were analyzed by using Flow Jo software (version 10.0.7, United States).

CMT-7364 cells [8] = assay: Annexin V-FITC/PI apoptosis flow cytometry; details: 0.3 and 0.9 μM, 24 h, vs control group
Protocol: as §4

CIPp cells [9] = assay: Western blot of apoptosis- and cell cycle-related proteins; details: different concentrations, 24 h, Western blot
Protocol: (§5) The CMT-7364 and CIPp cells were treated with different concentrations of Caspase inhibitor Z-V-F and/or celastrol for 24 h, and the cells were lysed with RIPA lysis buffer on ice. The protein was extracted according to the manufacturer's instructions, and protein concentration was determined by the BCA protein concentration assay kit. The loading amount of 20 μg protein in each group was separated by 10% SDS-PAGE, the separated protein was transferred to polyvinylidene fluoride membrane. After blocking with 5% skimmed milk for 1 h, the membrane was washed two times with 0.5% PBS-Tween 20 (PBS-T), then the membrane with the primary antibody was incubated overnight in a shaker at 4°C. Primary antibodies include β-actin (1:2,000), p65 (1:1,000), NF-κB (1:1,000), Caspase-9 (1:1,000), Caspase-3 (1:1,000), Bax (1:2,000), Bcl-2 (1:1,000), Cyclin D1 (1:1,000), p21 (1:1,000), and p27 (1:1,000). After washing 3 times with PBS-T buffer for 10 min each time, the membrane was incubated with HRP-conjugated secondary antibody at 37°C for 30 min. Secondary antibodies include anti-mouse IgG antibody (1:5,000), anti-rabbit IgG antibody (1:2,000~1:4,000). The membrane was washed 3 times with PBS-T for 10 min each time. Finally, it was detected by an enhanced chemiluminescence detection system, and the results were quantified by ImageJ.

CMT-7364 cells [10] = assay: as above; details: different concentrations, 24 h, Western blot
Protocol: as §5

[11] = 0.9 μM, 24 h, relative to control
[12] = 0.3 and 0.9 μM, vs control group

## CC1=C(O)C(=O)C=C2C1=CC=C1[C@@]2(C)CC[C@@]2(C)[C@@H]3C[C@](C)(C(=O)O)CC[C@]3(C)CC[C@]12C [celastrol, Celastrol]
CIPp cells [1]
  formation of colonies: significantly inhibited the formation of colonies
CMT-7364 cells [2]
  formation of colonies: significantly inhibited the formation of colonies
CIPp cells [3]
  migration rate: 52.00 ± 1.73%
CMT-7364 cells [4]
  migration rate: 55.33 ± 4.91%
CIPp cells [5]; [11]
  invasion rate: 32.00 ± 1.73%
CIPp cells [5]; [12]
  invasion ability: inhibited the invasion ability of CMT-7364 and CIPp cells in a dose-dependent manner
CMT-7364 cells [6]; [11]
  invasion rate: 28.00 ± 1.53%
CMT-7364 cells [6]; [12]
  invasion ability: inhibited the invasion ability of CMT-7364 and CIPp cells in a dose-dependent manner
CIPp cells [7]
  percentages of early and late apoptotic cells: increased in a dose-dependent manner
CMT-7364 cells [8]
  percentages of early and late apoptotic cells: increased in a dose-dependent manner
CIPp cells [9]
  protein expression level of Bax: significantly up-regulated
  protein expression level of Bcl-2: significantly down-regulated
  protein expression level of Cleaved-Caspase-3: significantly up-regulated
  protein expression level of Cleaved-Caspase-9: significantly up-regulated
  protein expression level of Cyclin D1: down-regulated
  protein expression level of NF-kB: significantly down-regulated
  protein expression level of p21: up-regulated
  protein expression level of p27: up-regulated
  protein expression level of phosphorylated p65: significantly down-regulated
CMT-7364 cells [10]
  protein expression level of Bax: significantly up-regulated
  protein expression level of Bcl-2: significantly down-regulated
  protein expression level of Cleaved-Caspase-3: significantly up-regulated
  protein expression level of Cleaved-Caspase-9: significantly up-regulated
  protein expression level of Cyclin D1: down-regulated
  protein expression level of NF-kB: significantly down-regulated
  protein expression level of p21: up-regulated
  protein expression level of p27: up-regulated
  protein expression level of phosphorylated p65: significantly down-regulated

From PMC8854749, “Celastrol Inhibits Canine Mammary Tumor Cells by Inducing Apoptosis via the Caspase Pathway” (Frontiers in Veterinary Science, 2022)
